Assay results: paper PMC9311798, “A Novel Class of Potent Anti-Tyrosinase Compounds with Antioxidant Activity, 2-(Substituted phenyl)-5-(trifluoromethyl)benzo[d]thiazoles: In Vitro and In Silico Insights” (Antioxidants, 2022)
Each block holds one molecule with its values, some of them ahead of it.

Columns and labels:
[1] = biological target: T1, mushroom tyrosinase (Agaricus bisporus, UniProt C7FF04); experiment: Mushroom tyrosinase inhibition assay; format: biochemical; details: L-tyrosine as substrate
T1 construct: purchased Sigma-Aldrich
T1 sequence (C7FF04 1-392 limits assumed): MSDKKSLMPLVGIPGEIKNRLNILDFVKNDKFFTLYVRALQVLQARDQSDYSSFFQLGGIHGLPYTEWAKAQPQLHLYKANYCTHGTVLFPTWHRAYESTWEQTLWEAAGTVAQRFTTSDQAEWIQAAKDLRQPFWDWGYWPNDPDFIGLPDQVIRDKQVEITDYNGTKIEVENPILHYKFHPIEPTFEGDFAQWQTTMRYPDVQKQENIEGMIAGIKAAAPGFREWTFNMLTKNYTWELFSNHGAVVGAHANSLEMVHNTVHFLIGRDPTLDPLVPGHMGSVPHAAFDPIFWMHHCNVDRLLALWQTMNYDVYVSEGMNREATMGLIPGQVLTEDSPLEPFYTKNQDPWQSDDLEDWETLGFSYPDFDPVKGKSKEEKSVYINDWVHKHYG
Procedure: Mushroom tyrosinase inhibitory activity was determined as described previously, with minor modifications. L-Tyrosine was used as a substrate to determine enzyme activities. […] These dose-dependent inhibition experiments were carried out three times using three to five different concentrations of test compounds to determine IC50 values. Log–linear curves and their equations were derived from the observed percentages of inhibition.

[2] = ABTS radical scavenging activity assay; details: 100 µM, 2 min in the dark; for ABTS free radical scavenged (%): 734 nm
Procedure: At 734 nm, optical densities of the solutions were measured using a microplate reader (VersaMax^TM, Molecular Devices, Sunnyvale, CA, USA). The ABTS radical scavenging capacities of the 16 2-arylbenzothiazole derivatives were compared with trolox. All experiments were performed independently in triplicate.

[3] = system: intracellular ROS in B16F10 cells; experiment: Intracellular ROS scavenging (DCFH-DA assay, SIN-1 induced); format: cell-based, murine; details: 20 µM, SIN-1 10 µM, trolox 20 µM positive control
Procedure: Intracellular ROS scavenging evaluation was performed as reported by Ali et al. and Lebel and Bondy. ROS generation was assessed using the ROS-sensitive fluorescence indicator DCFH-DA. Briefly, B16F10 cells were seeded in 96-well black plates (1 × 10^4 cell/well), incubated for 24 h, treated with compounds 1a–1p (20 µM in DMSO) for 2 h, stimulated with 10 µL of SIN-1 (100 µM in 50 mM sodium phosphate buffer, pH 7.4) for 1 h to induce ROS production, and then incubated with DCFH-DA (20 µM) for 30 min at 37 °C. Fluorescence was measured for 30 min at 5 min intervals at an excitation wavelength of 485 nm and emission wavelength of 535 nm, using a Berthold microplate reader (Berthold Technologies GmbH &Co., Wien, Austria).

[4] = DPPH radical scavenging activity assay; details: compound 1.0 mM, 30 min in the dark, 517 nm
Procedure: The DPPH (2,2-diphenyl-1-picrylhydrazyl) scavenging activities of synthesized compounds 1a–1p were investigated as previously described, with minor modifications. A dimethyl sulfoxide solution (20 µL) containing 10 mM of each compound was mixed with DPPH methanol solution (0.2 mM, 180 µL) in the wells of a 96-well plate, and placed in the dark for 30 min at room temperature. At 517 nm, optical densities were measured using a microplate reader (VersaMax^TM, Molecular Devices, Sunnyvale, CA, USA). The DPPH radical scavenging ability of the 2-arylbenzothiazole derivatives was compared with that of L-ascorbic acid, the positive control. All experiments were performed independently in triplicate.

SMILES: Oc1ccc(-c2nc3cc(C(F)(F)F)ccc3s2)cc1O [Compound 1c, 4-(5-(Trifluoromethyl)benzo[d]thiazol-2-yl)benzene-1,2-diol]
IC50 [1]: > 300 µM | ABTS radical scavenging activity (in words) [2]: potently scavenged the ABTS radical | ABTS free radical scavenged (%) [2]: 92.4% | intracellular ROS scavenging [3]: scavenged intracellular ROS far more potently than trolox | DPPH radical scavenging activity [4]: greatest DPPH radical scavenging activity (comparable to L-ascorbic acid) | melting point: 267.3 to 269.4 °C

SMILES: CCOc1cc(-c2nc3cc(C(F)(F)F)ccc3s2)ccc1O [Compound 1e, 2-Ethoxy-4-(5-(trifluoromethyl)benzo[d]thiazol-2-yl)phenol]
IC50 [1]: > 300 µM | melting point: 117 to 117.8 °C

SMILES: COc1ccc(-c2nc3cc(C(F)(F)F)ccc3s2)cc1O [Compound 1f, 2-Methoxy-5-(5-(trifluoromethyl)benzo[d]thiazol-2-yl)phenol]
IC50 [1]: > 300 µM | DPPH radical scavenging activity [4]: moderate DPPH radical scavenging efficacy | melting point: 142.1 to 144.5 °C

SMILES: Oc1ccccc1-c1nc2cc(C(F)(F)F)ccc2s1 [Compound 1g, 2-(5-(Trifluoromethyl)benzo[d]thiazol-2-yl)phenol]
IC50 [1]: > 300 µM | intracellular ROS scavenging [3]: scavenged intracellular ROS to a similar extent to trolox | melting point: 175 to 176.5 °C

SMILES: COc1ccc(-c2nc3cc(C(F)(F)F)ccc3s2)cc1 [Compound 1h, 2-(4-Methoxyphenyl)-5-(trifluoromethyl)benzo[d]thiazole]
IC50 [1]: > 300 µM | melting point: 128.8 to 130.1 °C

SMILES: COc1ccc(-c2nc3cc(C(F)(F)F)ccc3s2)c(OC)c1 [Compound 1i, 2-(2,4-Dimethoxyphenyl)-5-(trifluoromethyl)benzo[d]thiazole]
IC50 [1]: > 300 µM | melting point: 140.4 to 141.6 °C

SMILES: COc1cc(-c2nc3cc(C(F)(F)F)ccc3s2)cc(OC)c1OC [Compound 1k, 5-(Trifluoromethyl)-2-(3,4,5-trimethoxyphenyl)benzo[d]thiazole]
IC50 [1]: > 300 µM | melting point: 132.5 to 134 °C

SMILES: COc1cc(-c2nc3cc(C(F)(F)F)ccc3s2)cc(OC)c1O [Compound 1l, 2,6-Dimethoxy-4-(5-(trifluoromethyl)benzo[d]thiazol-2-yl)phenol]
IC50 [1]: > 300 µM | DPPH radical scavenging activity [4]: moderate DPPH radical scavenging efficacy | melting point: 220.6 to 222.6 °C

SMILES: Oc1c(Br)cc(-c2nc3cc(C(F)(F)F)ccc3s2)cc1Br [Compound 1o, 2,6-Dibromo-4-(5-(trifluoromethyl)benzo[d]thiazol-2-yl)phenol]
IC50 [1]: > 300 µM

SMILES: Cc1c(C)c2c(c(C)c1O)CCC(C)(C(=O)O)O2 (stereo not drawn) [trolox, 6-hydroxy-2,5,7,8-tetramethylchroman-2-carboxylic acid, reference compound]
ABTS free radical scavenged (%) [2]: 98.9%

More lines, main results first:

IC50 [1]: 291 ± 63.8 µM | melting point: 155.7 to 159.9 °C
SMILES: COc1cc(-c2nc3cc(C(F)(F)F)ccc3s2)ccc1O [Compound 1d, 2-Methoxy-4-(5-(trifluoromethyl)benzo[d]thiazol-2-yl)phenol]
DPPH radical scavenging activity [4]: moderate DPPH radical scavenging efficacy

IC50 [1]: 264 ± 56.6 µM | melting point: 120.4 to 121.6 °C
SMILES: COc1ccc(-c2nc3cc(C(F)(F)F)ccc3s2)cc1OC [Compound 1j, 2-(3,4-Dimethoxyphenyl)-5-(trifluoromethyl)benzo[d]thiazole]

IC50 [1]: 129 ± 19.8 µM
SMILES: Cc1cc(-c2nc3cc(C(F)(F)F)ccc3s2)cc(C)c1O [Compound 1m, 2,6-Dimethyl-4-(5-(trifluoromethyl)benzo[d]thiazol-2-yl)phenol]
DPPH radical scavenging activity [4]: moderate DPPH radical scavenging efficacy

IC50 [1]: 217 ± 32.7 µM | melting point: 256.7 to 260.6 °C
SMILES: Oc1cc(O)cc(-c2nc3cc(C(F)(F)F)ccc3s2)c1 [Compound 1n, 5-(5-(Trifluoromethyl)benzo[d]thiazol-2-yl)benzene-1,3-diol]
ABTS radical scavenging activity (in words) [2]: potently scavenged the ABTS radical | intracellular ROS scavenging [3]: scavenged intracellular ROS to a similar extent to trolox | DPPH radical scavenging activity [4]: moderate DPPH radical scavenging efficacy

IC50 [1]: 102 ± 12.4 µM
SMILES: Oc1ccc(-c2nc3cc(C(F)(F)F)ccc3s2)cc1Br [Compound 1p, 2-Bromo-4-(5-(trifluoromethyl)benzo[d]thiazol-2-yl)phenol]
intracellular ROS scavenging [3]: scavenged intracellular ROS to a similar extent to trolox
